Experimental data published in US9867802B2, “Method of treating Scedosporium spp. infection” (BIODIEM LIMITED, priority 2012, dated 2018).
Values after ≈ are worked out from the molar mass of the structure shown. Where two headings read alike, the source gives them in different places.

What was measured:
[1] = tested on: S. apiospermum; assay: In vitro susceptibility (MIC) against Scedosporium spp.; assay type: cell-based
Protocol: (§1) In vitro susceptibility to Compound (1) was assessed against Scedosporium spp. A stock solution of 1 mg/ml of Compound (1) was made in 100% DMSO. The stock was aliquoted and stored at −80° C.
(§2) Three strains Scedosporium prolificans and 3 strains of S. apiospermum/P. boydii were tested. Each isolate was tested in duplicate and on two separate occasions.

[2] = tested on: Scedosporium prolificans; assay: as above; assay type: cell-based; conditions: for MIC: Lomentospora prolificans, duplicate on two occasions, read-out: Arithmetic Mean MIC (mg/L) of 4 readings
Protocol: as §1, §2

[3] = tested on: P. boydii; assay: as above; assay type: cell-based, Pseudallescheria boydii; conditions: strain P. boydii 01-10-1391979, duplicate on two occasions, read-out: Arithmetic Mean MIC (mg/L) of 4 readings
Protocol: as §1, §2

[4] = Solubility profile

SMILES | MIC ([1]; read-out: Arithmetic Mean MIC (mg/L) of 4 readings, strain S. apsiopermum 04-10-2013595, duplicate on two occasions) | MIC ([1]; strain S. apiospermum 04-10-1932310, duplicate on two occasions, read-out: Arithmetic Mean MIC (mg/L) of 4 readings) | MIC ([2]; strain S. prolificans 04-11-1472398) | MIC ([2]; strain S. prolificans (Austin Pathology)) | MIC ([2]; strain S. prolificans MB 10028425) | Relative activity among Scedosporium spp. ([2]; comparison of species tested in Table 1) | MIC [3] | Solubility in organic solvents ([4]; acetone, alcohol, acetic acid and a majority of organic solvents) | Solubility in water ([4]; water)
C/C(=C\c1ccc2c(c1)OCO2)[N+](=O)[O-] [Compound (1), 3,4-methylenedioxy-β-methyl-β-nitrostyrene] | 2 mg/L (≈ 9.65 µM) | 4 mg/L (≈ 19.3 µM) | 2 mg/L (≈ 9.65 µM) | 1 mg/L (≈ 4.83 µM) | 2 mg/L (≈ 9.65 µM) | most active against S. prolificans | 4 mg/L (≈ 19.3 µM) |  | 
O=[N+]([O-])/C=C/c1ccc2c(c1)OCO2 [Compound (2), 3,4-methylenedioxy-β-nitrostyrene] |  |  |  |  |  |  |  | soluble | non-soluble
